Source: ChEMBL document CHEMBL4680147, “Discovery of 6'-chloro-N-methyl-5'-(phenylsulfonamido)-[3,3'-bipyridine]-5-carboxamide (CHMFL-PI4K-127) as a novel Plasmodium falciparum PI(4)K inhibitor with potent antimalarial activity against both blood and liver stages of Plasmodium” (Eur J Med Chem, 2020)
Activity calls are given as the source filed them. The rule behind the calls is not given here.

Legend:
[1] = Cmax in Sprague-Dawley rat at 10 mg/kg, po; format: ADME, organism-based; design: route oral, dose 10 mg/kg; details: in vivo
Plasmodium falciparum [2] = test: Antimalarial activity against mefloquine/chloroquine/pyrimethamine resistant Plasmodium falciparum Dd2 infected in human O+ erythrocytes incubated for 72 hrs by SYBR Green 1 dye based fluorescence assay; format: functional, organism-based; details: Dd2, Erythrocyte
[3] = Selectivity index, ratio of IC50 for human PI3Kalpha to IC50 for recombinant His-tagged Plasmodium falciparum 3D7 PI4K expressed in baculovirus infected Sf9 cells
[4] = AUC(0 to t) in Sprague-Dawley rat at 1 mg/kg, iv; format: ADME, organism-based; design: dose 1 mg/kg; details: in vivo
Plasmodium falciparum [5] = test: Antimalarial activity against chloroquine resistant Plasmodium falciparum D10 infected in human O+ erythrocytes incubated for 72 hrs by SYBR Green 1 dye based fluorescence assay; format: functional, organism-based; details: D10, Erythrocyte
[6] = Selectivity index, ratio of IC50 for human PI4K3alpha to IC50 for recombinant His-tagged Plasmodium falciparum 3D7 PI4K expressed in baculovirus infected Sf9 cells
Plasmodium yoelii [7] = test: Antimalarial activity against blood stage Plasmodium yoelii infected in BALB/c mouse assessed as suppression of parasitemia at 60 mg/kg/day, po administered for 7 consecutive days starting from 1 day post-infection and measured after cessation of drug treatment by Giemsa-staining based microscopic analysis; format: functional, organism-based; details: time 7.0 day
[8] = Apparent volume of distribution in mouse at 1 mg/kg, iv; format: ADME, organism-based; details: in vivo, read-out: Vz
[9] = Selectivity index, ratio of IC50 for human PI4K3beta to IC50 for recombinant His-tagged Plasmodium falciparum 3D7 PI4K expressed in baculovirus infected Sf9 cells
Plasmodium yoelii [10] = test: Antimalarial activity against blood stage Plasmodium yoelii infected in BALB/c mouse assessed as suppression of parasitemia administered once daily via oral gavage for 7 consecutive days starting from 1 day post-infection and observed for 20 days by Giemsa-staining based microscopic analysis; format: functional, organism-based; details: dose 60-80 mg/kg/day, time 20.0 day
Plasmodium falciparum [11] = test: Antimalarial activity against blood stage Plasmodium falciparum harboring PI4K Y1342I mutant infected in human O+ erythrocytes incubated for 72 hrs by SYBR Green 1 dye based fluorescence assay; format: functional, organism-based; details: Erythrocyte
[12] = target: Phosphatidylinositol 4-kinase beta (Homo sapiens, UniProt Q9UBF8); test: Inhibition of human PI4K3beta by ADP-Glo kinase assay
Plasmodium falciparum [13] = test: Antimalarial activity against pyrimethamine/chloroquine resistant Plasmodium falciparum CP286 infected in human O+ erythrocytes incubated for 72 hrs by SYBR Green 1 dye based fluorescence assay; format: functional, organism-based; details: CP286, Erythrocyte
[14] = target: Phosphatidylinositol 4,5-bisphosphate 3-kinase catalytic subunit gamma isoform (Homo sapiens, UniProt P48736); test: Inhibition of human PI3Kgamma by ADP-Glo kinase assay
Plasmodium falciparum [15] = test: Antimalarial activity against blood stage Plasmodium falciparum harboring PI4K Y1342I/T1360A mutant infected in human O+ erythrocytes incubated for 72 hrs by SYBR Green 1 dye based fluorescence assay; format: functional, organism-based; details: Erythrocyte
Plasmodium yoelii [16] = test: Antimalarial activity against blood stage Plasmodium yoelii infected in BALB/c mouse assessed as suppression of parasitemia at 60 mg/kg/day, po administered for 7 consecutive days starting from 1 day post-infection and observed for 20 days by Giemsa-staining based microscopic analysis; format: functional, organism-based; details: time 20.0 day
[17] = Selectivity index, ratio of IC50 for human PI3Kdelta to IC50 for recombinant His-tagged Plasmodium falciparum 3D7 PI4K expressed in baculovirus infected Sf9 cells
[18] = Selectivity index, ratio of IC50 for human PI3Kgamma to IC50 for recombinant His-tagged Plasmodium falciparum 3D7 PI4K expressed in baculovirus infected Sf9 cells
[19] = Apparent clearance in mouse at 1 mg/kg, iv; format: ADME, organism-based; details: in vivo, read-out: CL(app) (converted)
Plasmodium falciparum [20] = test: Antimalarial activity against sulphadoxine-resistant blood stage Plasmodium falciparum 3D7 infected in human O+ erythrocytes incubated for 72 hrs by SYBR Green 1 dye based fluorescence assay; format: functional, organism-based; details: 3D7, Erythrocyte
[21] = Half life in Sprague-Dawley rat at 10 mg/kg, po; format: ADME, organism-based; details: in vivo
[22] = Apparent clearance in Sprague-Dawley rat at 10 mg/kg, po; format: ADME, organism-based; details: in vivo, read-out: CL(app) (converted)
[23] = Mean residence time (0 to t) in mouse at 10 mg/kg, po; format: ADME, organism-based; details: in vivo
[24] = Apparent clearance in Sprague-Dawley rat at 1 mg/kg, iv; format: ADME, organism-based; details: in vivo, read-out: CL(app) (converted)
[25] = Cmax in Sprague-Dawley rat at 1 mg/kg, iv; format: ADME, organism-based; design: route intravenous, dose 1 mg/kg; details: in vivo
[26] = Tmax in mouse at 1 mg/kg, iv; format: ADME, organism-based; details: in vivo
[27] = Cmax in mouse at 10 mg/kg, po; format: ADME, organism-based; design: route oral, dose 10 mg/kg; details: in vivo
[28] = Tmax in Sprague-Dawley rat at 1 mg/kg, iv; format: ADME, organism-based; details: in vivo
[29] = Inhibition of human PIK3C2alpha by ADP-Glo kinase assay
[30] = Selectivity index, ratio of EC50 for antimalarial activity against Plasmodium falciparum harboring PI4K Y1342I/T1360A mutant infected in human O+ erythrocytes to EC50 for antimalarial activity against Plasmodium falciparum harboring PI4K Y1342I mutant infected in human O+ erythrocytes; format: functional
[31] = target: Phosphatidylinositol 4,5-bisphosphate 3-kinase catalytic subunit beta isoform (Homo sapiens, UniProt P42338); test: Inhibition of human PI3Kbeta by ADP-Glo kinase assay
[32] = Selectivity index, ratio of EC50 for antimalarial activity against wild type Plasmodium falciparum infected in human O+ erythrocytes to EC50 for antimalarial activity against Plasmodium falciparum harboring PI4K Y1342I mutant infected in human O+ erythrocytes; format: functional, Erythrocyte
[33] = target: Phosphatidylinositol 4-phosphate 3-kinase C2 domain-containing subunit beta (Homo sapiens, UniProt O00750); test: Inhibition of human PIK3C2beta by ADP-Glo kinase assay
[34] = Apparent volume of distribution in Sprague-Dawley rat at 1 mg/kg, iv; format: ADME, organism-based; details: in vivo, read-out: Vz
[35] = Half life in Sprague-Dawley rat at 1 mg/kg, iv; format: ADME, organism-based; details: in vivo
[36] = AUC(0 to infinity) in mouse at 1 mg/kg, iv; format: ADME, organism-based; design: time infinity, route intravenous, dose 1 mg/kg; details: in vivo
Plasmodium falciparum [37] = test: Antimalarial activity against pyrimethamine/chloroquine resistant Plasmodium falciparum PC26 infected in human O+ erythrocytes incubated for 72 hrs by SYBR Green 1 dye based fluorescence assay; format: functional, organism-based; details: PC26, Erythrocyte
[38] = Mean residence time (0 to t) in Sprague-Dawley rat at 10 mg/kg, po; format: ADME, organism-based; details: in vivo

Phosphatidylinositol 4-phosphate 3-kinase C2 domain-containing subunit beta, sequence (O00750 whole entry, the tested form may be a part): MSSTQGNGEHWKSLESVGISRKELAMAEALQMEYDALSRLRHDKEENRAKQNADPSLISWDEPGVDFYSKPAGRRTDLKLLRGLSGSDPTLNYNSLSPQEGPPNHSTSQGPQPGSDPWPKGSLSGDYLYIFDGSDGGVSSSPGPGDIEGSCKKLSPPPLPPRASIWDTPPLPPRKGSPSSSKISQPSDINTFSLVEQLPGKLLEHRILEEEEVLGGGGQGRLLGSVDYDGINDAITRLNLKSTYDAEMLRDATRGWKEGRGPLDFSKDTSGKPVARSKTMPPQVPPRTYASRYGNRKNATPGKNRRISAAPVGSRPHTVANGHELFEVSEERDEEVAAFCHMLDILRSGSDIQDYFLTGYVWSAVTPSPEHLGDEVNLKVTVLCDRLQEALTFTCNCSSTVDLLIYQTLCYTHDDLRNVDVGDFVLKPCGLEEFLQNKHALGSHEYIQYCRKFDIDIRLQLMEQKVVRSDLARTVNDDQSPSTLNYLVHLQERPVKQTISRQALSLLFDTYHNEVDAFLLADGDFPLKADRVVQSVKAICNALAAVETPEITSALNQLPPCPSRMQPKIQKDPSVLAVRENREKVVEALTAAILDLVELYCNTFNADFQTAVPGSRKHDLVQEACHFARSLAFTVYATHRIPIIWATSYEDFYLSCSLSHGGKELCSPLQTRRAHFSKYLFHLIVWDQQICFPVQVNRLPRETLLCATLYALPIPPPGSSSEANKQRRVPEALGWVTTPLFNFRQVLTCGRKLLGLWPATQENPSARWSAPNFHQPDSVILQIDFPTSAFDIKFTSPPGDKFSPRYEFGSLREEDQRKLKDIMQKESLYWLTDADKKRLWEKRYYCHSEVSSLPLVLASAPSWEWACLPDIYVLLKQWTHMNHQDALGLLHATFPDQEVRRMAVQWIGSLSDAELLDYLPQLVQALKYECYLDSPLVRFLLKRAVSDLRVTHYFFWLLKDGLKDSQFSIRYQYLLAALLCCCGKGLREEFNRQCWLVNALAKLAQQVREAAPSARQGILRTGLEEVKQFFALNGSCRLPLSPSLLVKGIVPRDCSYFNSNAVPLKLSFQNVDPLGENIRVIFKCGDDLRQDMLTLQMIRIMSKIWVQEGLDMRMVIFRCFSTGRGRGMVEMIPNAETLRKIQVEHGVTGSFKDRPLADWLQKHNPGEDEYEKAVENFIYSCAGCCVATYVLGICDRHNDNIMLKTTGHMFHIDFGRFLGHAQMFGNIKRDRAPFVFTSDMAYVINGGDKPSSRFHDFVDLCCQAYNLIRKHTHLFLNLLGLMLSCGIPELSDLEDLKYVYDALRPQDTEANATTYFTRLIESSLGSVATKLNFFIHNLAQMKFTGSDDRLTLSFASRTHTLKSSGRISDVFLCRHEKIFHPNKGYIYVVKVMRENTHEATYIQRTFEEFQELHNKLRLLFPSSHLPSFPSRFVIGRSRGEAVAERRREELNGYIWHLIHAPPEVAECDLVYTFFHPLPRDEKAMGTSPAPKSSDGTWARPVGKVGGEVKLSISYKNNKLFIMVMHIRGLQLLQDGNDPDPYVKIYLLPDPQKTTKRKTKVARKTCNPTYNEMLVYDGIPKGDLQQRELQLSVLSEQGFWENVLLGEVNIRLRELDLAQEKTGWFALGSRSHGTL
Phosphatidylinositol 4,5-bisphosphate 3-kinase catalytic subunit beta isoform, sequence (P42338 whole entry, canonical isoform): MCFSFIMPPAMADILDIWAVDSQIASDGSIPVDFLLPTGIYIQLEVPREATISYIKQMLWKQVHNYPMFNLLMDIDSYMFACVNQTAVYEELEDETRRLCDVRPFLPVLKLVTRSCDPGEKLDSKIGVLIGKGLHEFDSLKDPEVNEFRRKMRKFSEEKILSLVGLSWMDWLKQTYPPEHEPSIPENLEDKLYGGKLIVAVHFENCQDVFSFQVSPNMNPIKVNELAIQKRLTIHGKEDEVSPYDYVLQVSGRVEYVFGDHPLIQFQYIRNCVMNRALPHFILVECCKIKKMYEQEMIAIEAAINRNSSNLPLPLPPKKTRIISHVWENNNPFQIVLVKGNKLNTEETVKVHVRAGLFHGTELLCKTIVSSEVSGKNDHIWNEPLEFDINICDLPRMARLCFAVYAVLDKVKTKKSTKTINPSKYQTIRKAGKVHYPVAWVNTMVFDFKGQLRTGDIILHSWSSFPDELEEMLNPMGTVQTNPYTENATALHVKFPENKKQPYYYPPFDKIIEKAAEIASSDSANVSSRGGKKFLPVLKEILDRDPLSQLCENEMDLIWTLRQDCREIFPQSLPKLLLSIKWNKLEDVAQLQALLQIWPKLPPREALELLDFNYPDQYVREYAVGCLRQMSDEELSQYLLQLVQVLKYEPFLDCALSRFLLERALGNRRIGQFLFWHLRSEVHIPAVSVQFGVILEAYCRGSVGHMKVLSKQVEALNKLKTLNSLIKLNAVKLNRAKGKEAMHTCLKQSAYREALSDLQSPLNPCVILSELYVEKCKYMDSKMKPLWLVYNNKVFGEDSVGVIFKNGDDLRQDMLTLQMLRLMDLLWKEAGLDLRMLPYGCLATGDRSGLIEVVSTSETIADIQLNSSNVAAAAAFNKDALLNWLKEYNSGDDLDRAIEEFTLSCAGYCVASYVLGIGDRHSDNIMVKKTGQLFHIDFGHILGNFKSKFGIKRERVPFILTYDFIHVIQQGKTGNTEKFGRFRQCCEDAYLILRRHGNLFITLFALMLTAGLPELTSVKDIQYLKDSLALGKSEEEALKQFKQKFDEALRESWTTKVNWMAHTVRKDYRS
Phosphatidylinositol 4,5-bisphosphate 3-kinase catalytic subunit gamma isoform, sequence (P48736 whole entry, canonical isoform): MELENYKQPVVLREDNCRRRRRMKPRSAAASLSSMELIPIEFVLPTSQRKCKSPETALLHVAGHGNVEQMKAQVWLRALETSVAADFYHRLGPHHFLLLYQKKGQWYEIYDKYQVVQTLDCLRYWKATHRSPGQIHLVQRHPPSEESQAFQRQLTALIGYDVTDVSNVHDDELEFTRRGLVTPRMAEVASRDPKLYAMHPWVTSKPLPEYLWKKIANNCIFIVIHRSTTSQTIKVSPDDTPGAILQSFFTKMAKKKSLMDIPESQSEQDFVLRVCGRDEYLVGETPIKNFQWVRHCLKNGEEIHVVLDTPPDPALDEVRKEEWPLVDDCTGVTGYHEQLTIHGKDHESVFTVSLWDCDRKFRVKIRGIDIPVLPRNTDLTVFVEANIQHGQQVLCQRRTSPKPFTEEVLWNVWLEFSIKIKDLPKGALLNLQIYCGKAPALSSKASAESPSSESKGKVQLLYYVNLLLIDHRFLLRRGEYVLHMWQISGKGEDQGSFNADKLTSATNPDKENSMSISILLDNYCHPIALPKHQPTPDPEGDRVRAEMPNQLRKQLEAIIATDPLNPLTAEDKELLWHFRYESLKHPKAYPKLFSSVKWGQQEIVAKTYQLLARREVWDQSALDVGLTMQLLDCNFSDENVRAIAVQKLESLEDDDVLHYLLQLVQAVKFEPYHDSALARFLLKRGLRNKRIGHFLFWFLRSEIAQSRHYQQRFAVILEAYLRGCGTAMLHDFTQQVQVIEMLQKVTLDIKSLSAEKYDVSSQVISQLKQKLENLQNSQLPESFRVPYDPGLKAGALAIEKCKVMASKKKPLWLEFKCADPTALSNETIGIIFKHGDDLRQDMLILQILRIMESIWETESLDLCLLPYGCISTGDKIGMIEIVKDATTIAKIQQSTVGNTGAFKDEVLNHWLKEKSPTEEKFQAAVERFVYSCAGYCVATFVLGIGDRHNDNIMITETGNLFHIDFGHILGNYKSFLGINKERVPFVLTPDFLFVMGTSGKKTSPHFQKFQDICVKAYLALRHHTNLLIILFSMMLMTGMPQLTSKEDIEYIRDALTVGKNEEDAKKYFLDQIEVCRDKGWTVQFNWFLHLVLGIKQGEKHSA
Phosphatidylinositol 4-kinase beta, sequence (Q9UBF8 whole entry): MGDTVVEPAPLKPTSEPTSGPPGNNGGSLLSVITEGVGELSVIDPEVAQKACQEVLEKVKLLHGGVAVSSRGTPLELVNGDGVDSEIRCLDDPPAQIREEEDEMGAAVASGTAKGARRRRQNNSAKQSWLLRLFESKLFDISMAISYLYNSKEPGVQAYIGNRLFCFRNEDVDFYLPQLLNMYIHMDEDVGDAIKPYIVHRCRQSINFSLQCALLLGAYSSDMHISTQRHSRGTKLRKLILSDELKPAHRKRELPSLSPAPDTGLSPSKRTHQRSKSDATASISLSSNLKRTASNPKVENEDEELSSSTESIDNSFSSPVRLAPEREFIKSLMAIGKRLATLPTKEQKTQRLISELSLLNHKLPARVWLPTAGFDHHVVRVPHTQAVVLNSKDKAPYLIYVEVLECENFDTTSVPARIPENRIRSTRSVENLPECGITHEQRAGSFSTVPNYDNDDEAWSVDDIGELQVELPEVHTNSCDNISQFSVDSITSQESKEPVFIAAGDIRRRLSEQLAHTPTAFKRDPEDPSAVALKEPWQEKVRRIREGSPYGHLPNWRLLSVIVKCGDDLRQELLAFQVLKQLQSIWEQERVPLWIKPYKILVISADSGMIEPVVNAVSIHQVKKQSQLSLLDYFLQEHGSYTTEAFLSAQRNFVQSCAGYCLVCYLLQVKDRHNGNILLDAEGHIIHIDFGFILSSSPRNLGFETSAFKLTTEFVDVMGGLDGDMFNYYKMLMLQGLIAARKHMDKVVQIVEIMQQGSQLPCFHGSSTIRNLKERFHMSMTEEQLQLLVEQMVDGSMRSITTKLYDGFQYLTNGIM

In the case of CNC(=O)c1cncc(-c2cnc(Cl)c(NS(=O)(=O)c3ccccc3)c2)c1, the Cmax [1] is reported as 4340 ng/mL, the EC50 (Plasmodium falciparum [2]) is reported as 30.3 nM and the Ratio IC50 [3] is reported as 100. It also gave an AUC(0-t) [4] of 2160 ng·h/mL, an EC50 (Plasmodium falciparum [5]) of 28 nM and a Ratio IC50 [6] of 100. The Activity (Plasmodium yoelii [7]) was “inactive”, the Vd [8] was 12.1 L/kg and the Ratio IC50 [9] was 400. For the same compound, the Activity (Plasmodium yoelii [10]) was “Dose dependent effect”, the EC50 (Plasmodium falciparum [11]) was 10.2 nM and the IC50 [12] was 433 nM. The EC50 (Plasmodium falciparum [13]) was 24.1 nM, the IC50 [14] was 324 nM and the EC50 (Plasmodium falciparum [15]) was 248 nM. For the same compound, the Activity (Plasmodium yoelii [16]) was “Active”, the Ratio IC50 [17] was 100 and the Ratio IC50 [18] was 100. It also gave a clearance [19] of 51.7 mL/min/kg, an EC50 (Plasmodium falciparum [20]) of 25.1 nM and a half-life [21] of 2.9 h. It also gave a CL/F [22] of 8.33 mL/min/kg, an MRT last [23] of 4.4 h and a clearance [24] of 8.33 mL/min/kg. For the same compound, the Cmax [25] was 5010 ng/mL, the Tmax [26] was 1.8 min and the Cmax [27] was 1540 ng/mL. For the same compound, the Tmax [28] was 1.2 min, the IC50 [29] was over 10000 nM and the “Ratio EC50” value [30] was 24. For the same compound, the IC50 [31] was 392 nM, the “Ratio EC50” value [32] was 2 and the IC50 [33] was over 10000 nM. It also gave a Vd [34] of 2.6 L/kg, a half-life [35] of 3.5 h and an AUC(0-inf) [36] of 292 ng·h/mL. It also gave an EC50 (Plasmodium falciparum [37]) of 44 nM and an MRT last [38] of 4.3 h.
